Results published in paper PMC6441019, “Prospective discovery of small molecule enhancers of an E3 ligase-substrate interaction” (Nature Communications, 2019).

Legend:
[1] = molecular target: T1, pSer33/S37A β-catenin peptide binding to β-TrCP (Homo sapiens, UniProt P35222+Q9Y297, S37A); test: TR-FRET peptide binding and cooperativity assay, pSer33/S37A peptide
T1 construct: titrating BODIPY-FL-labeled β-catenin peptides (residues 17-48) against 300 pM β-TrCP; 6xHis-SMT3 (N, cleaved yes); made in house; host or cells: E. coli (co-expressed with BirA)
T1 sequence (Q9Y297 1-569 isoform Q9Y297-2, stated change not applied): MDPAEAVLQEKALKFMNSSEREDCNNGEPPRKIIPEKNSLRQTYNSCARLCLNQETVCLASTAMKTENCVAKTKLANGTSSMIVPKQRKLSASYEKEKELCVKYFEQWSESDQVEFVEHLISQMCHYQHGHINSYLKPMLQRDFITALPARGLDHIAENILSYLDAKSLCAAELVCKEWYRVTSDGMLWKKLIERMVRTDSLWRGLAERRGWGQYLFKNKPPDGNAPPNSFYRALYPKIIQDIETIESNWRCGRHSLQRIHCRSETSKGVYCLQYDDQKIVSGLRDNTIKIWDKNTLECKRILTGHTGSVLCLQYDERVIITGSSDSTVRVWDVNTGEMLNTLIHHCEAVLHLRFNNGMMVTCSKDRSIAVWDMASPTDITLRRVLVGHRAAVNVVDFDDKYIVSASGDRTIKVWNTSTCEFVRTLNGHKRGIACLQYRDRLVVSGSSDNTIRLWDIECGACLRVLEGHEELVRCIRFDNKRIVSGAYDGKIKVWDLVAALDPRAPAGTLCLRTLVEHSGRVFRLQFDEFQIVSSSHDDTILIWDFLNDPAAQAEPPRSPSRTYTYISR
T1 sequence (P63208 whole entry partner, the tested form may be a part): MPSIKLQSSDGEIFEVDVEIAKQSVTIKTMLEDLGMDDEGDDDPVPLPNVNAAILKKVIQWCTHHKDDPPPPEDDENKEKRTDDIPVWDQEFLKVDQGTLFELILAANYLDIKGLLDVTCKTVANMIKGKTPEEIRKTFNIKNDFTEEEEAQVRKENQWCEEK
T1 sequence (P35222 17-48 S37A limits assumed): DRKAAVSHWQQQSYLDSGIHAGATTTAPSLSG
Procedure: (§1) Compounds were incubated in a 20 μl reaction volume with 300 pM biotinylated β-TrCP/Skp1 preincubated with 1.2 nM terbium-coupled streptavidin (Cisbio) and BODIPY-FL labeled β-catenin peptides (see figure legends for peptide details) in a white 384-well microplate (Perkin Elmer ProxiPlate), using a PBS buffer containing 0.01% Triton X-100 and 2 mM DTT with 2% final DMSO. […] Following 1-h incubation, plates were read for TR-FRET signal after excitation at 320 nm and read at 520 and 620 nm using an EnVision plate reader (Perkin Elmer). TR-FRET signal was calculated using a 520/620 nm ratio. Binding and enhancement data were fit to a standard Hill equation (Y = Bmin + (Bmax − Bmin)(X^h)/(X^h + EC50^h)) in Prism (GraphPad). Errors are standard error of the fit.

[2] = molecular target: T2, Ser33/S37A β-catenin peptide binding to β-TrCP (Homo sapiens, UniProt P35222+Q9Y297, S37A); test: TR-FRET peptide binding assay, unphosphorylated Ser33/S37A peptide
T2 construct: titrating BODIPY-FL-labeled β-catenin peptides (residues 17-48) against 300 pM β-TrCP; 6xHis-SMT3 (N, cleaved yes); made in house; host or cells: E. coli (co-expressed with BirA)
T2 sequence (Q9Y297 1-569 isoform Q9Y297-2, stated change not applied): as the sequence (Q9Y297 1-569 isoform Q9Y297-2, stated change not applied) above
T2 sequence (P63208 whole entry partner, the tested form may be a part): as the sequence (P63208 whole entry partner, the tested form may be a part) above
T2 sequence (P35222 17-48 S37A limits assumed): as the sequence (P35222 17-48 S37A limits assumed) above
Procedure: as §1

[3] = molecular target: T3, S33E/S37A β-catenin peptide binding to β-TrCP (Homo sapiens, UniProt P35222+Q9Y297, S33E/S37A); test: TR-FRET binding enhancement assay, S33E/S37A peptide; conditions: 1% binding saturation
T3 construct: titrating BODIPY-FL-labeled β-catenin peptides (residues 17-48) against 300 pM β-TrCP; 6xHis-SMT3 (N, cleaved yes); made in house; host or cells: E. coli (co-expressed with BirA)
T3 sequence (Q9Y297 1-569 isoform Q9Y297-2, stated change not applied): as the sequence (Q9Y297 1-569 isoform Q9Y297-2, stated change not applied) above
T3 sequence (P63208 whole entry partner, the tested form may be a part): as the sequence (P63208 whole entry partner, the tested form may be a part) above
T3 sequence (P35222 17-48 S33E/S37A limits assumed): as the sequence (P35222 17-48 S37A limits assumed) above, with S17E counted along it
Procedure: as §1

[4] = molecular target: T3, S33E/S37A β-catenin peptide binding to β-TrCP; test: TR-FRET peptide binding assay, S33E/S37A peptide; conditions: read-out: binding affinity of S33E/S37A peptide
Procedure: as §1

[5] = molecular target: T4, pSer33/S37A β-catenin peptide ubiquitylation by SCFβ-TrCP (Homo sapiens, UniProt P35222+Q9Y297, S37A); test: In vitro ubiquitylation of pSer33/S37A β-catenin peptide; assay type: biochemical; conditions: forms long ubiquitin chains
T4 construct: fluorescently-labeled β-catenin peptide (residues 17–60; as indicated) was ubiquitylated; 6xHis-SMT3 (N, cleaved yes); made in house; host or cells: E. coli (β-TrCP1/Skp1); E. coli or SF9 (Cul1-Rbx1)
Procedure: (§2) Four micromolar of fluorescently-labeled β-catenin peptide (residues 17–60) were ubiquitylated in a buffer containing 25 mM Tris Cl (pH 7.5), 50 mM NaCl, 5 mM MgCl2, 2 mM ATP, and 1 mM DTT at room temperature in the presence of 62.5 μM Ubiquitin, 125 nM Ube1, 1.75 μM Cdc34A, and 100 nM neddylated SCF^β-TrCP in the presence or absence of compound (as indicated). Typically, individual reaction mixes with either Ubiquitin, Ube1 and Cdc34A or β-catenin, SCF^β-TrCP and compound were preincubated and subsequently mixed to initiate β-catenin ubiquitylation. Reactions were quenched by SDS loading buffer, resolved by SDS-PAGE and imaged for fluorescence. For full length β-catenin protein ubiquitylation 400 nM β-catenin and 400 nM SCF^β-TrCP were used instead.

[6] = molecular target: T5, Ser33/S37A β-catenin peptide ubiquitylation by SCFβ-TrCP (Homo sapiens, UniProt P35222+Q9Y297, S37A); test: In vitro ubiquitylation of Ser33/S37A β-catenin peptide; assay type: biochemical
T5 construct: Ubiquitylation of Ser33/S37A β-catenin peptide (residues 17–60) by SCF^β-TrCP; 6xHis-SMT3 (N, cleaved yes); made in house; host or cells: E. coli (β-TrCP1/Skp1); E. coli or SF9 (Cul1-Rbx1)
Procedure: as §2

[7] = molecular target: T6, full-length Ser33/S37A β-catenin protein ubiquitylation by SCFβ-TrCP (Homo sapiens, UniProt P35222+Q9Y297, S37A); test: In vitro ubiquitylation of full-length Ser33/S37A β-catenin protein; assay type: biochemical
T6 construct: 400 nM purified full-length S37A mutant β-catenin protein was ubiquitylated; 6xHis-SMT3 (N, cleaved yes); host or cells: HEK293T (β-catenin); E. coli (β-TrCP1/Skp1); E. coli or SF9 (Cul1-Rbx1)
T6 sequence (Q9Y297 1-569 isoform Q9Y297-2, stated change not applied): as the sequence (Q9Y297 1-569 isoform Q9Y297-2, stated change not applied) above
T6 sequence (P63208 whole entry partner): as the sequence (P63208 whole entry partner, the tested form may be a part) above
T6 sequence (Q13616 whole entry partner): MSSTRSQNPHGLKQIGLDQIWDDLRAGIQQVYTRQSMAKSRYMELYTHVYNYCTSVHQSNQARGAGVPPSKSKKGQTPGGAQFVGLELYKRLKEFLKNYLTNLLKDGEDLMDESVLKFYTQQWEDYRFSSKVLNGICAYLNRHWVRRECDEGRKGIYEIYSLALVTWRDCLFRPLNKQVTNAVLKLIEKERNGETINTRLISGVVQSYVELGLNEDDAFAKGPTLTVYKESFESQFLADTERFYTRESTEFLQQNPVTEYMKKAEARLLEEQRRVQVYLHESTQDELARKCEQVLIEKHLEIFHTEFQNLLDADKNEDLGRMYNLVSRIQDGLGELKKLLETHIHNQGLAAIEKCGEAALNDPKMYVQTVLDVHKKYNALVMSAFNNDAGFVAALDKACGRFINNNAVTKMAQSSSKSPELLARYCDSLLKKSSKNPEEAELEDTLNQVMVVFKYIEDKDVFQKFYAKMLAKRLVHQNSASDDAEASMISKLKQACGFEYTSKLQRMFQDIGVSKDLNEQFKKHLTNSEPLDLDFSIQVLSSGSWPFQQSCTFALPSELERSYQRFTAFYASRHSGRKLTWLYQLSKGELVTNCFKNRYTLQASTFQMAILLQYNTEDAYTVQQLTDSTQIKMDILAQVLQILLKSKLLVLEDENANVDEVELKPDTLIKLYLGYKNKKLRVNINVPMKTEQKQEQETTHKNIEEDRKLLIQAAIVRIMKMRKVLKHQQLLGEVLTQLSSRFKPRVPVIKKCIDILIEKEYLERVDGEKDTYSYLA
T6 sequence (P62877 whole entry partner): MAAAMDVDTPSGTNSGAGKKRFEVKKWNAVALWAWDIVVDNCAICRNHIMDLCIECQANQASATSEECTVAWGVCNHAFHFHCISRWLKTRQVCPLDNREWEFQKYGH
T6 sequence (Q15843 1-76 partner limits assumed): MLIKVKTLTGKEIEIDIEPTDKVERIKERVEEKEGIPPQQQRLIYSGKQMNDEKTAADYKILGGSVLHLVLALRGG
T6 sequence (P35222 whole entry S37A): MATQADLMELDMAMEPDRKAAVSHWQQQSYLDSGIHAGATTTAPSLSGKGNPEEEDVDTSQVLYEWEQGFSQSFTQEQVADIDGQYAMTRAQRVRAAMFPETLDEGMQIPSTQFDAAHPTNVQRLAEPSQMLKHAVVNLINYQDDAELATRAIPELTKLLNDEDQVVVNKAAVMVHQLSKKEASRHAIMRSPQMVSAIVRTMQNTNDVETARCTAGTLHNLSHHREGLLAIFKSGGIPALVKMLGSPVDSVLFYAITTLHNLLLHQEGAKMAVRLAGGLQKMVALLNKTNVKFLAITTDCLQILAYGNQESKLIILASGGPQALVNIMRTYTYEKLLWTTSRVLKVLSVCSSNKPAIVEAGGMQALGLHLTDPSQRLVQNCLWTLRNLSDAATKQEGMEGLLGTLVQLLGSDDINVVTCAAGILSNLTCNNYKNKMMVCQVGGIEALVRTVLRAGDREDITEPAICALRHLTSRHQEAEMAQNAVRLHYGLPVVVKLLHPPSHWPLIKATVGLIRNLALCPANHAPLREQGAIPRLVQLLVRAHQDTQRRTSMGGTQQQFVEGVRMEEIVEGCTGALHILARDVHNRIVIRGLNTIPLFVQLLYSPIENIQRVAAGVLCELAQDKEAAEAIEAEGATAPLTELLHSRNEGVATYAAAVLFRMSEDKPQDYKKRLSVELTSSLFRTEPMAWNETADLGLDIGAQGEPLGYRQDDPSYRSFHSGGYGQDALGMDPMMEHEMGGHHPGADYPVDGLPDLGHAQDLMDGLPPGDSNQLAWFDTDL
Procedure: as §2

[8] = molecular target: T7, full-length S33E/S37A β-catenin protein ubiquitylation by SCFβ-TrCP (Homo sapiens, UniProt P35222+Q9Y297, S33E/S37A); test: In vitro ubiquitylation of full-length S33E/S37A β-catenin protein; assay type: biochemical
T7 construct: 6xHis-SMT3 (N, cleaved yes); host or cells: HEK293T (β-catenin); E. coli (β-TrCP1/Skp1); E. coli or SF9 (Cul1-Rbx1)
Procedure: as §2

[9] = molecular target: T8, S33E/S37A mutant β-catenin (Homo sapiens, UniProt P35222+Q9Y297, S33E/S37A); test: β-catenin degradation in HEK293T cells stably expressing S33E/S37A β-catenin; assay type: cell-based; conditions: HEK293T stable line, 6 h, western
T8 construct: Full-length β-catenin (Myc/FLAG-tagged; Origene); expressed in transfected cells
Procedure: HEK293T cells were plated in a 10 cm dish in regular growth media (DMEM + 10% FBS) and allowed to adhere to the plate overnight. The following day, cells were transfected with S33E/S37 β-catenin using FuGeneHD transfection reagent. Transfected cells were then selected with media containing 700 μg/ml Geneticin. A pooled population of selected cells were used for all described experiments.
HEK293T cells expressing S33E/S37A β-catenin were plated in six-well plates at a density of 9 × 10^5 cells/well. The following day, cells were incubated with compounds diluted in regular growth media to the appropriate concentration. The final concentration of DMSO for all cell treatments was kept at 0.5% or less. Cell treatments with the Nedd8 inhibitor (MLN4924) and the proteasome inhibitor (MG132) were performed at a final concentration of 5 μM and 10 μM respectively. Cycloheximide treatment was performed at a final concentration of 100 μg/ml.

[10] = molecular target: T9, endogenous S37A mutant β-catenin (Homo sapiens, UniProt P35222+Q9Y297, S37A); test: Degradation of endogenous S37A β-catenin in TOV-112D cells; assay type: cell-based
T9 construct: host or cells: TOV-112D

cooperativity of peptide binding to β-TrCP [1]: > 1500 fold
enhancement in PPI binding affinity ([2]; 20 μM NRX-252114): > 500 fold
Kd ([2]; read-out: binding affinity of non-phosphorylated peptide): 180 nM
EC50 [3]: 1100 ± 30 nM
Kd [4]: 6 nM
enhancement of ubiquitylation of pSer33/S37A β-catenin peptide [5]: further enhances
ubiquitylation of unphosphorylated Ser33/S37A β-catenin peptides [6]: potentiates the ubiquitylation
ligand concentration at which ubiquitin chain formation resembles WT β-catenin protein [8]: ≥ 10 µM
enhancement of ubiquitylation of S33E/S37A β-catenin protein ([8]; varying concentration): markedly enhances
concentration at which degradation of S33E/S37A mutant β-catenin starts [9]: ~ 50 μM
degradation of endogenous S37A mutant β-catenin [10]: did not induce degradation
Compound: N#Cc1cccc2c1CN(C(=O)c1c(Sc3c(Cl)cccc3Cl)cc(C(F)(F)F)[nH]c1=O)C2 [NRX-252114]
ubiquitylation of full-length Ser33/S37A β-catenin, comparison of enhancers [7]: higher degree of ubiquitylation than NRX-103094
level of ubiquitylation of full-length Ser33/S37A β-catenin ([7]; 40 μM compound): approaches that of WT full-length protein
